# Assay results as given in publication PMC4838342 (Nucleic Acids Research, 2015).
# Ends that are not written are not given here.
# Legend:
# (His)6-sNASP = assay: Pulldown of MBP-H3 fusions by (His)6-sNASP (epitope mapping); format: binding, human; settings: MBP fusions from whole cell bacterial extracts; Nickel-NTA beads; SDS-PAGE, Coomassie
# Description: (§1) Protein was eluted in the same buffer with 250 mM imidazole, but without protease inhibitors. The (His)6 tag was cleaved overnight by TEV protease, whilst concomitantly dialysing to 100 mM sodium chloride, 20 mM Tris–HCl pH 8.0, 1 mM EDTA and 5 mM dithiothreitol. Cleaved protein was further purified by ion-exchange using a ResourceQ column (GE Healthcare) before gel filtration chromatography in 200 mM sodium chloride, 20 mM Hepes-KOH pH 7.6 and 1 mM EDTA using a 26/60 Superdex 200 column (GE Healthcare). The purified protein was concentrated and stored in aliquots at −80°C. Homologues, truncations and point mutants of sNASP were expressed and purified using the same method. MBP-H3 peptide fusions were expressed in bacteria and used as whole cell extracts (epitope mapping) or purified over a Dextrin Sepharose column (GE Healthcare) in one-step purification in 0.5 M sodium chloride, 20 mM Hepes-KOH pH 7.6, 1 mM EDTA and 5 mM dithiothreitol. Concentrated protein was dialysed against 200 mM sodium chloride, 20 mM Hepes-KOH, 1 mM EDTA and 5 mM dithiothreitol and stored in aliquots at −80°C.
# Mutations were made in the MBP H3 116–135 construct using a mixture of site-direct mutagenesis and oligo ligation. Whole cell extracts were prepared from bacteria and used as inputs for the pulldown experiments with (His)6-sNASP pre-bound to Nickel-NTA beads (GE Healthcare).
# sNASP [1] = assay: Isothermal titration calorimetry, sNASP titrated into MBP H3 116–135; set-up: species or system human; settings: one-site binding model
# Description: Isotherms were analysed by the software NITPIC and SEDPHAT ([43]) and plotted using the software GUSSI.
# sNASP [2] = assay: Analytical gel filtration, sNASP + MBP H3 116–135; format: binding, human; settings: Superdex S200; 20 mM Hepes-KOH pH 7.5, 200 mM NaCl
# Description: (§2) Analytical gel filtration was carried out using a Superdex S200 10/300 Gl column (GE Healthcare) in 20 mM Hepes-KOH pH 7.5 and 200 mM sodium chloride, unless otherwise stated. 0.5 ml fractions were collected encompassing the void (7 ml) and bed (21 ml) volumes of the column. Fractions were separated by SDS-PAGE and stained with Coomassie Brilliant Blue (SERVA).
# [3] = test system: sNASP homologue from Arabidopsis thaliana; assay: Pulldown of MBP H3 116–135 by A. thaliana sNASP homologue; format: binding; settings: (His)6-tagged recombinant homologue
# Description: as §1
# (§3) Mutations were made in the MBP H3 116–135 construct using a mixture of site-direct mutagenesis and oligo ligation. Whole cell extracts were prepared from bacteria and used as inputs for the pulldown experiments with (His)6-sNASP pre-bound to Nickel-NTA beads (GE Healthcare). […]
# Sim3 [4] = assay: Pulldown of MBP H3 116–135 by Sim3; format: binding, Schizosaccharomyces pombe; settings: (His)6-tagged recombinant homologue
# Description: as §1, §3
# [5] = test system: sNASP homologue from Chaetomium thermophilum; assay: Pulldown of MBP H3 116–135 by C. thermophilum sNASP homologue; format: binding; settings: (His)6-tagged recombinant homologue
# Description: as §1, §3
# Hif1 = assay: Pulldown of MBP H3 116–135 by Hif1; format: binding, Saccharomyces cerevisiae; settings: (His)6-tagged recombinant homologue
# Description: as §1, §3
# Sim3 [6] = assay: Gel filtration, Sim3 + MBP H3 116–135; format: binding, Schizosaccharomyces pombe; settings: Superdex S200; 20 mM Hepes-KOH pH 7.5, 200 mM NaCl
# Description: as §2
# Hif1-GST = assay: Gel filtration, Hif1-GST + MBP H3 116–135; format: binding, Saccharomyces cerevisiae; settings: Superdex S200; 20 mM Hepes-KOH pH 7.5, 200 mM NaCl; Hif1 GST tagged
# Description: as §2
# sNASP [7] = assay: Fluorescence-2-hybrid (F2H) assay at LacO array, EGFP-sNASP; format: cell-based, human; settings: U2OS cells, LacO (256×) array, mCherry-LacI-histone constructs, live cells
# Description: For all the F2H assays, we used human U2OS cells harbouring the stably integrated lacO (256×) array described earlier ([44]), except for mitochondrial F2H, which was carried out on U2OS cells without an integrated array. F2H assays were essentially performed as previously described in ([45],[46]) and ([44]). Image analysis was manually performed with ImageJ image analysis software. Fluorescence intensity at the LacI array was calculated as a percentage increase over the nucleoplasm. Assignment of the LacO array and nucleoplasm were done manually. Twenty cells were counted for statistical analysis so as not to inflate the calculated P-value. Only cells in which a clearly discernable array was present were counted. For the mitochondrial F2H, the first 70 residues of the outer mitochondrial membrane protein TOM70 were cloned onto the N-terminus of mCherry. Full length H3 or H3 residues 116–135 was then cloned onto the C-terminus of mCherry to create a TOM70-mCherry-Histone triple fusion. Deleting residues 378–383 using standard site-directed mutagenesis techniques disrupted the nuclear localization sequence (NLS) of mEGFP-sNASP, resulting in its cytoplasmic expression.
substance,measurement,setting,value
"125–135: H3 fragment fused to MBP (QLARRIRGERA; also: fused to MBP; UniProt P68431 126-136, looked up, fragment)",pulldown by (His)6-sNASP,(His)6-sNASP,pulled down efficiently
"CENPA: homologous region of the CENPA variant of H3 from human (VTLFPKDVQLARRIRGLEE; UniProt P49450 119-137, looked up, fragment)",pulldown by (His)6-sNASP,(His)6-sNASP,able to pull down
MBP H3 116–135: C-terminal 20 residues of H3 fused to MBP,stoichiometry in words,sNASP [1]; partial degradation likely caused underestimated ratios,close to 1:1 stoichiometry
same,Kd,"sNASP [1]; range of n = 3 with varying cell and titrant concentrations, read-out: dissociation constant",47 to 68 nM
same,pulldown by (His)6-sNASP,(His)6-sNASP,pulled down to near stoichiometric amounts
same,complex formation by gel filtration,sNASP [2],form a stable complex
same,pulldown by A. thaliana homologue,[3],pulled down stoichiometric amounts
same,pulldown by S. pombe homologue (Sim3),Sim3 [4],pulled down stoichiometric amounts
same,pulldown by C. thermophilum homologue,[5],pulled down stoichiometric amounts
same,pulldown by S. cerevisiae homologue (Hif1),Hif1,no pull down was observed
same,complex formation with Sim3 by gel filtration,Sim3 [6],coeluted
same,complex formation with Hif1-GST by gel filtration,Hif1-GST,eluted in separate fractions
last 20 residues of H3: short region encompassing the last 20 residues of H3,interaction with sNASP in F2H assay,sNASP [7],sufficient for binding
